Test: xn = mol fraction of the nth substance listed
Details: Liquid, Vibrating tube method

CCCCCCCC [octane] + CCCCCC
Details | mass density [kg/m3]
362.88 K, 4000 kPa, x2 = 0.1654 | 644.35
362.88 K, 4000 kPa, x2 = 0.2199 | 642.17
362.88 K, 5000 kPa, x2 = 0.1654 | 645.69
362.88 K, 5000 kPa, x2 = 0.2199 | 643.54
362.88 K, 6000 kPa, x2 = 0.1654 | 647.04
362.88 K, 6000 kPa, x2 = 0.2199 | 644.88
362.88 K, 7000 kPa, x2 = 0.1654 | 648.35
362.88 K, 7000 kPa, x2 = 0.2199 | 646.21
362.88 K, 8000 kPa, x2 = 0.1654 | 649.64
362.88 K, 8000 kPa, x2 = 0.2199 | 647.53
362.88 K, 9000 kPa, x2 = 0.1654 | 650.92
362.88 K, 9000 kPa, x2 = 0.2199 | 648.82
362.88 K, 10000 kPa, x2 = 0.1654 | 652.16
362.88 K, 10000 kPa, x2 = 0.2199 | 650.09
362.88 K, 11000 kPa, x2 = 0.1654 | 653.43
362.88 K, 11000 kPa, x2 = 0.2199 | 651.35
362.88 K, 12000 kPa, x2 = 0.1654 | 654.65
362.88 K, 12000 kPa, x2 = 0.2199 | 652.59
362.88 K, 13000 kPa, x2 = 0.1654 | 655.84
362.88 K, 13000 kPa, x2 = 0.2199 | 653.81
362.88 K, 14000 kPa, x2 = 0.1654 | 657.01
362.88 K, 14000 kPa, x2 = 0.2199 | 654.99
362.88 K, 15000 kPa, x2 = 0.1654 | 658.17
362.88 K, 15000 kPa, x2 = 0.2199 | 656.16
362.88 K, 16000 kPa, x2 = 0.1654 | 659.3
362.88 K, 16000 kPa, x2 = 0.2199 | 657.29
362.88 K, 17000 kPa, x2 = 0.1654 | 660.41
362.88 K, 17000 kPa, x2 = 0.2199 | 658.42
362.88 K, 18000 kPa, x2 = 0.1654 | 661.5
362.88 K, 18000 kPa, x2 = 0.2199 | 659.52
362.88 K, 19000 kPa, x2 = 0.1654 | 662.58
362.88 K, 19000 kPa, x2 = 0.2199 | 660.6
362.88 K, 20000 kPa, x2 = 0.1654 | 663.6
362.88 K, 20000 kPa, x2 = 0.2199 | 661.65
362.88 K, 21000 kPa, x2 = 0.1654 | 664.63
362.88 K, 21000 kPa, x2 = 0.2199 | 662.67
362.88 K, 22000 kPa, x2 = 0.1654 | 665.63
362.88 K, 22000 kPa, x2 = 0.2199 | 663.67
362.88 K, 23000 kPa, x2 = 0.1654 | 666.61
362.88 K, 23000 kPa, x2 = 0.2199 | 664.66
362.88 K, 24000 kPa, x2 = 0.1654 | 667.57
362.88 K, 24000 kPa, x2 = 0.2199 | 665.61
362.88 K, 25000 kPa, x2 = 0.1654 | 668.52
362.88 K, 25000 kPa, x2 = 0.2199 | 666.56
362.89 K, 1000 kPa, x2 = 0.9308 | 599.76
362.89 K, 2000 kPa, x2 = 0.9308 | 601.55
362.89 K, 3000 kPa, x2 = 0.9308 | 603.31
362.89 K, 4000 kPa, x2 = 0.9308 | 605.04
362.89 K, 5000 kPa, x2 = 0.9308 | 606.72
362.89 K, 6000 kPa, x2 = 0.9308 | 608.38
362.89 K, 7000 kPa, x2 = 0.9308 | 610.01
362.89 K, 8000 kPa, x2 = 0.9308 | 611.58
362.89 K, 9000 kPa, x2 = 0.9308 | 613.16
362.89 K, 10000 kPa, x2 = 0.9308 | 614.68
362.89 K, 11000 kPa, x2 = 0.9308 | 616.17
362.89 K, 12000 kPa, x2 = 0.9308 | 617.64
362.89 K, 13000 kPa, x2 = 0.9308 | 619.07
362.89 K, 14000 kPa, x2 = 0.9308 | 620.48
362.89 K, 15000 kPa, x2 = 0.9308 | 621.85
362.89 K, 16000 kPa, x2 = 0.9308 | 623.2
362.89 K, 17000 kPa, x2 = 0.9308 | 624.51
362.89 K, 18000 kPa, x2 = 0.9308 | 625.8
362.89 K, 19000 kPa, x2 = 0.9308 | 627.06
362.89 K, 20000 kPa, x2 = 0.9308 | 628.28
362.89 K, 21000 kPa, x2 = 0.9308 | 629.48
362.89 K, 22000 kPa, x2 = 0.9308 | 630.64
362.89 K, 23000 kPa, x2 = 0.9308 | 631.79
362.89 K, 24000 kPa, x2 = 0.9308 | 632.9
362.89 K, 25000 kPa, x2 = 0.9308 | 634.01
362.9 K, 1000 kPa, x2 = 0.7995 | 608.76
362.9 K, 2000 kPa, x2 = 0.7995 | 610.47
362.9 K, 3000 kPa, x2 = 0.7995 | 612.13
362.9 K, 4000 kPa, x2 = 0.7995 | 613.77
362.9 K, 5000 kPa, x2 = 0.7995 | 615.41
362.9 K, 6000 kPa, x2 = 0.7995 | 616.94
362.9 K, 7000 kPa, x2 = 0.7995 | 618.5
362.9 K, 8000 kPa, x2 = 0.7995 | 620.01
362.9 K, 9000 kPa, x2 = 0.7995 | 621.5
362.9 K, 10000 kPa, x2 = 0.7995 | 622.96
362.9 K, 11000 kPa, x2 = 0.7995 | 624.39
362.9 K, 12000 kPa, x2 = 0.7995 | 625.81
362.9 K, 13000 kPa, x2 = 0.7995 | 627.18
362.9 K, 14000 kPa, x2 = 0.7995 | 628.53
362.9 K, 15000 kPa, x2 = 0.7995 | 629.85
362.9 K, 16000 kPa, x2 = 0.7995 | 631.14
362.9 K, 17000 kPa, x2 = 0.7995 | 632.42
362.9 K, 18000 kPa, x2 = 0.7995 | 633.67
362.9 K, 19000 kPa, x2 = 0.7995 | 634.88
362.9 K, 20000 kPa, x2 = 0.7995 | 636.08
362.9 K, 21000 kPa, x2 = 0.7995 | 637.22
362.9 K, 22000 kPa, x2 = 0.7995 | 638.34
362.9 K, 23000 kPa, x2 = 0.7995 | 639.44
362.9 K, 24000 kPa, x2 = 0.7995 | 640.51
362.9 K, 25000 kPa, x2 = 0.7995 | 641.57
